Source: patent US20230339889A1, “DERIVATIVES OF 2-OXO-N-(4-(PYRIMIDIN-4-YLOXY/THIO)PHENYL)-1,2-DIHYDROPYRIDINE-3-CARBOXAMIDE FOR USE AS PROTEIN KINASE INHIBITORS FOR THERAPY” (AUCENTRA THERAPEUTICS PTY LTD, priority 2020, published 2023)

Key:
MV4-11 = assay: Proliferation assay (MTT, leukaemia cancer cell line); format: cell-based; conditions: Homo sapiens; 1 µM compound, MV4-11 cells
From the text: (§1) Compounds from Example 1 were subjected to standard resazurin and MTT assays on solid tumour and leukaemia cancer cell lines, respectively, as previously reported (Wang S et al., J Med Chem 47:1662-1675, 2004 and Diab S et al., CheMedChem 9:962-972, 2014).

MDA-MB-231 = assay: Proliferation assay (resazurin, solid tumour cell line); format: cell-based; conditions: Homo sapiens; MDA-MB-231 cells
From the text: as §1

Mer = molecular target: T1, Mer (Homo sapiens, UniProt Q12866); assay: Filter-binding radiometric kinase activity assay (KinaseProfiler, Eurofins); format: biochemical; conditions: 1 µM compound; read-out: % Residual enzymatic activity at 1 µM Mer
T1 construct: purchased Eurofins Discovery (Kinase Profiler service)
T1 sequence (Q12866 21-999): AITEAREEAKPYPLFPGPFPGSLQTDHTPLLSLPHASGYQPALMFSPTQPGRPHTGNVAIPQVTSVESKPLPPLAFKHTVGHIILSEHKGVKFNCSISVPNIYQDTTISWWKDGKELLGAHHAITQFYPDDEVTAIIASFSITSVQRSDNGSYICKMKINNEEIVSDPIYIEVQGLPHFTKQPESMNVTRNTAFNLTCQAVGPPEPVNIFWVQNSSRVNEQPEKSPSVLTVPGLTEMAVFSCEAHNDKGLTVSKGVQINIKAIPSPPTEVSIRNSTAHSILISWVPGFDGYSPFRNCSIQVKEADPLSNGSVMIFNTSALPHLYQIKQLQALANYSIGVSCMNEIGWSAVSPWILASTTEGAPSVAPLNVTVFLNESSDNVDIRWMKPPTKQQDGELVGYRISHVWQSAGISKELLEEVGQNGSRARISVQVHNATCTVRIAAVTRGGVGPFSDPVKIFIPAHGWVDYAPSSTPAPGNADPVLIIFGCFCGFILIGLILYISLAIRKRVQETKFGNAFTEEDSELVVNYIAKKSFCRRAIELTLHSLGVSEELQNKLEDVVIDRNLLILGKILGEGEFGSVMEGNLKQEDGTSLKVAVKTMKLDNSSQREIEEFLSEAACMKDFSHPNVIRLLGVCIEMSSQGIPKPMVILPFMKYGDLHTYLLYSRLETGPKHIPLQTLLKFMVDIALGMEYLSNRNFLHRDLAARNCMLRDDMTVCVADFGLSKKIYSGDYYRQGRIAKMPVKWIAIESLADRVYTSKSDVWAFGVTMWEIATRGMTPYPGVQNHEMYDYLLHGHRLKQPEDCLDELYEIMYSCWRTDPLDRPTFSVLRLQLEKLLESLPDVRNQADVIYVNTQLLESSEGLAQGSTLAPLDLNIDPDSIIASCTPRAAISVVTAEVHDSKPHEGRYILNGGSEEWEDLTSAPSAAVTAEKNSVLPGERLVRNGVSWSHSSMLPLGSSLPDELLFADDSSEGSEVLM

Row | Structure (SMILES) | activity at 1 µM (MV4-11) [%] | GI50 (MDA-MB-231) [µM] | remaining activity at 1 µM (Mer) [%]
1 | Nc1ncnc(Oc2ccc(NC(=O)c3cccn(-c4ccc(F)cc4)c3=O)cc2F)c1F [Cmpd 1, N-(4-((6-amino-5-fluoropyrimidin-4-yl)oxy)-3-fluorophenyl)-1-(4-fluorophenyl)-2-oxo-1,2-dihydropyridine-3-carboxamide] | 3 | 1.2 | 12
2 | Nc1ncnc(Oc2ccc(NC(=O)c3cccn(-c4ccc(F)cc4)c3=O)cc2F)c1Cl [Cmpd 3, N-(4-((6-amino-5-chloropyrimidin-4-yl)oxy)-3-fluorophenyl)-1-(4-fluorophenyl)-2-oxo-1,2-dihydropyridine-3-carboxamide] | 3 | 7.9 | 6
3 | Nc1ncnc(Oc2ccc(NC(=O)c3cccn(-c4ccc(F)cc4)c3=O)cc2)c1Cl [Cmpd 4, N-(4-((6-amino-5-chloropyrimidin-4-yl)oxy)phenyl)-1-(4-fluorophenyl)-2-oxo-1,2-dihydropyridine-3-carboxamide] | 6 | 2.7 | 19
4 | Nc1ncnc(Oc2ccc(NC(=O)c3cccn(-c4ccc(F)cc4)c3=O)c(F)c2)c1Cl [Cmpd 5, N-(4-((6-amino-5-chloropyrimidin-4-yl)oxy)-2-fluorophenyl)-1-(4-fluorophenyl)-2-oxo-1,2-dihydropyridine-3-carboxamide] | 6 | 0.9 | 0
5 | Nc1ncnc(Oc2ccc(NC(=O)c3cccn(-c4ccc(F)cc4)c3=O)cc2)c1F [Cmpd 6, N-(4-((6-amino-5-fluoropyrimidin-4-yl)oxy)phenyl)-1-(4-fluorophenyl)-2-oxo-1,2-dihydropyridine-3-carboxamide] | 3 | 8.9 | 14
6 | Nc1ncnc(Oc2ccc(NC(=O)c3cccn(-c4ccc(F)cc4)c3=O)c(F)c2)c1F [Cmpd 7, N-(4-((6-amino-5-fluoropyrimidin-4-yl)oxy)-2-fluorophenyl)-1-(4-fluorophenyl)-2-oxo-1,2-dihydropyridine-3-carboxamide] | 6 | 2.3 | 4
